Results as given in ChEMBL document CHEMBL2150935, “Synthesis, biological evaluation and chemometric analysis of indazole derivatives. 1,2-Disubstituted 5-nitroindazolinones, new prototypes of antichagasic drug” (Eur J Med Chem, 2012).
pIC50: −log10 of the molar value.

Legend:
Trypanosoma cruzi [1] = test: Growth inhibition of epimastigote form of Trypanosoma cruzi CL-B5 at 64 uM after 72 hrs by lacZ reporter gene assay; type: functional; details: CL-B5, 72 h, read-out: GI
[2] = Growth inhibition of mouse J774 cells at 256 uM after 24 hrs by resazurin reduction assay; type: cell-based; details: read-out: GI
Trypanosoma cruzi [3] = test: Growth inhibition of epimastigote form of Trypanosoma cruzi CL-B5 at 256 uM after 72 hrs by lacZ reporter gene assay; type: functional; details: CL-B5, 72 h, read-out: GI
Trypanosoma cruzi [4] = test: Growth inhibition of epimastigote form of Trypanosoma cruzi CL-B5 at 128 uM after 72 hrs by lacZ reporter gene assay; type: functional; details: CL-B5, 72 h, read-out: GI
[5] = Growth inhibition of mouse J774 cells at 128 uM after 24 hrs by resazurin reduction assay; type: cell-based; details: read-out: GI
[6] = Growth inhibition of mouse J774 cells at 64 uM after 24 hrs by resazurin reduction assay; type: cell-based; details: read-out: GI
Trypanosoma cruzi [7] = test: Growth inhibition of epimastigote form of Trypanosoma cruzi CL-B5 after 72 hrs by lacZ reporter gene assay; type: functional, organism-based; details: CL-B5, 72 h

Row | Compound | inhibition of growth at 64 µM (Trypanosoma cruzi [1]) [%] | inhibition at 24 h, 256 µM [2] [%] | inhibition of growth at 256 µM (Trypanosoma cruzi [3]) [%] | inhibition of growth at 128 µM (Trypanosoma cruzi [4]) [%] | inhibition at 24 h, 128 µM [5] [%] | inhibition at 24 h, 64 µM [6] [%] | pIC50 (Trypanosoma cruzi [7])
1 | CCCCOc1c2cc([N+](=O)[O-])ccc2nn1Cc1ccccc1 | 24.6 | 26.3 | 54.7 | 48.5 | – | – | –
2 | CCCn1c2ccc([N+](=O)[O-])cc2c(=O)n1C | 3.05 | 0 | 11.6 | 7.92 | 0 | 0 | –
3 | Cn1c2ccccc2c(=O)n1Cc1ccccc1 | 28 | – | 55.8 | 36.6 | – | – | –
4 | COc1c2cc([N+](=O)[O-])ccc2nn1Cc1ccccc1 | 48.3 | 6.83 | 21.2 | 38.1 | 0 | 0 | –
5 | Cn1nc(OCc2ccc3ccccc3c2)c2cc([N+](=O)[O-])ccc21 | 46.4 | – | 11.3 | 23.6 | 9 | 13.3 | –
6 | CCCn1c2ccc([N+](=O)[O-])cc2c(=O)n1Cc1ccc2ccccc2c1 | 78 | 15.5 | 41.9 | 70.4 | 11.9 | 0 | –
7 | CCCn1c2ccc([N+](=O)[O-])cc2c(=O)n1-c1ccccc1 | 71.8 | 0 | 86.1 | 76.5 | 0 | 0 | –
8 | CCCCCOc1c2cc([N+](=O)[O-])ccc2nn1Cc1ccccc1 | 53.4 | 0 | 79.3 | 78.8 | 0 | 0 | –
9 | CC1CS(=O)(=O)CCN1/N=C/c1ccc([N+](=O)[O-])o1 (stereo not given) [NIFURTIMOX] | 91.6 | 25 | 100 | 97.1 | 5 | 0 | 5.44
10 | Cn1c(=O)c2cc([N+](=O)[O-])ccc2n1Cc1ccccc1 | 39.8 | 6.33 | 80.6 | 70.3 | 6.91 | 0.55 | –
11 | Cn1nc(OCCc2ccccc2)c2cc([N+](=O)[O-])ccc21 | 67 | 0 | 49.4 | 40.6 | 2.99 | 0 | –
12 | COc1c2cc([N+](=O)[O-])ccc2nn1-c1ccccc1 | 0 | – | 2.81 | 0 | – | – | –
13 | Cn1nc2ccc([N+](=O)[O-])cc2c1OCc1ccccc1 | 36.7 | 0 | 65.5 | 56.1 | 1.39 | 21.5 | –
14 | COc1nn(-c2ccccc2)c2ccc([N+](=O)[O-])cc12 | 21.4 | 27.1 | 56.3 | 40.3 | – | – | –
15 | COc1c2cc([N+](=O)[O-])ccc2nn1C | 67.8 | 21.6 | 78.7 | 79.2 | 6.57 | 0 | –
16 | Cn1c(=O)c2cc([N+](=O)[O-])ccc2n1C | 42.7 | 0 | 68 | 42.8 | 0 | 11.4 | –
17 | COc1c2cc([N+](=O)[O-])ccc2nn1Cc1ccc2ccccc2c1 | 27 | 9.31 | 72.5 | 35.6 | – | – | –
18 | Cn1c2ccc([N+](=O)[O-])cc2c(=O)n1CCc1ccccc1 | 49.6 | 0 | 23.4 | 29.1 | 0 | 0 | –

Row | Compound | inhibition of growth at 64 µM (Trypanosoma cruzi [1]) [%] | inhibition at 24 h, 256 µM [2] [%] | inhibition of growth at 256 µM (Trypanosoma cruzi [3]) [%] | inhibition of growth at 128 µM (Trypanosoma cruzi [4]) [%] | inhibition at 24 h, 128 µM [5] [%] | inhibition at 24 h, 64 µM [6] [%] | pIC50 (Trypanosoma cruzi [7])
19 | Cn1c2ccc([N+](=O)[O-])cc2c(=O)n1-c1ccccc1 | 81.8 | 20.7 | 89.1 | 84.3 | 9.95 | 0 | –
20 | CC(C)Oc1c2cc([N+](=O)[O-])ccc2nn1C | 71.5 | 20 | 71.9 | 70.5 | 19.2 | 6.34 | –
21 | CC(C)Oc1c2cc([N+](=O)[O-])ccc2nn1Cc1ccc2ccccc2c1 | 76.5 | – | 63.7 | 76.6 | – | 26.5 | –
22 | CCCOc1c2cc([N+](=O)[O-])ccc2nn1Cc1ccc2ccccc2c1 | 61.2 | 0 | 22.5 | 16.4 | 28.5 | 22.4 | –
23 | O=C(Cn1ccnc1[N+](=O)[O-])NCc1ccccc1 [BENZNIDAZOLE] | 71 | 13 | 82 | 79.8 | 14.8 | 13 | 4.56
24 | Cn1c(=O)c2cc([N+](=O)[O-])ccc2n1-c1ccccc1 | 14.2 | 43.1 | 26.6 | 19.4 | – | – | –
25 | CC(C)n1c2ccc([N+](=O)[O-])cc2c(=O)n1-c1ccccc1 | 28.3 | 16.8 | 84 | 54.7 | 0 | 0 | –
26 | O=c1c2cc([N+](=O)[O-])ccc2n(Cc2ccccc2)n1Cc1ccccc1 | 74.5 | 57.9 | 69.2 | 83.7 | 64 | 9.77 | –
27 | CC(C)Oc1c2cc([N+](=O)[O-])ccc2nn1Cc1ccccc1 | 56.2 | 41.4 | 70.8 | 67.1 | – | – | –
28 | CC(C)n1c2ccc([N+](=O)[O-])cc2c(=O)n1Cc1ccc2ccccc2c1 | 10.7 | 0 | 24.2 | 13 | 0 | 0 | –
29 | CCCCCn1c2ccc([N+](=O)[O-])cc2c(=O)n1Cc1ccccc1 | 85.2 | 81 | 90.2 | 90 | 71.8 | 54.1 | –
30 | CCCOc1c2cc([N+](=O)[O-])ccc2nn1Cc1ccccc1 | 15.7 | 0 | 0 | 26.1 | 0 | 0 | –
31 | Cn1c2ccc([N+](=O)[O-])cc2c(=O)n1Cc1ccccc1 | 83.3 | 0 | 91.7 | 86 | 29 | 15.2 | –
32 | O=[N+]([O-])c1ccc2nn(Cc3ccccc3)c(OCc3ccccc3)c2c1 | 51.8 | 64.7 | 34.5 | 43.5 | 15.2 | – | –
33 | CC(C)Oc1c2cc([N+](=O)[O-])ccc2nn1-c1ccccc1 | 20.7 | – | 6.26 | 11.3 | – | – | –
34 | CCCOc1c2cc([N+](=O)[O-])ccc2nn1C | 27.4 | 62.4 | 91.2 | 16.9 | 35.3 | 0 | –
35 | CC(C)n1c2ccc([N+](=O)[O-])cc2c(=O)n1C | 7.45 | 0 | 13.2 | 10.5 | 0 | 0 | –
36 | Cn1c2ccc([N+](=O)[O-])cc2c(=O)n1Cc1ccc2ccccc2c1 | 42.5 | 0 | 37.7 | 40.9 | 0 | 0 | –
